The results in this text go back to article PMC3392440 (2012).

Assay [1] deals with TlpB (Helicobacter pylori, UniProt B6JPK4). Description: crystal structure. In kind it is binding.
Assay [2] deals with TlpB periplasmic domain, residues 33-211 (TlpBpp), H. pylori strain SS1 (Helicobacter pylori strain SS1). In words: crystal structure.
The target of assay [3] is TlpB (Helicobacter pylori, UniProt B6JPK4, Y137F). In words: colorimetric assay of co-purified urea. In kind it is binding.

For the molecule `CC(N)=O` [acetamide], the “crystal structure (1.40 Å); CD thermal melt” value at TlpB [1] is reported as “TlpBpp with acetamide bound is 3UB7”.

As for “TlpB periplasmic domain, residues 33-211 (TlpBpp), H. pylori strain SS1 (domain or fragment)”, in assay [2], the stoichiometry N amounted to 2.

Turning to `NC(N)=O` [urea], the “% bound urea” value at TlpB [3] turned out to be 11 % bound urea.
